# Patent publication US20140296190A1, “MARKETING THE USE OF 25-HYDROXYVITAMIN D3 TO ENHANCE COGNITION” (DSM IP ASSETS B.V., priority 2013, published 2014)
# Read-outs that look alike come from different tables or passages of the source.
# Tests used:
# [1] = parameters: species or system human; conditions: in vivo
# Text: The design is a parallel group, randomized, placebo-controlled, double-blind study similar to that of Example 2, above, except that the participants are healthy adults under 65. The duration of supplementation is 6 months (180 days). Group size is chosen so that a statistically significant difference, if present, may be observed between placebo and test groups.
# Participants are randomly allocated to either the 25-OH D3 group, Vitamin D3 group, (Vitamin D3+25 OH D3) group or placebo group. Double-blind randomization is carried out by means of a label code associated with a specific participant ID number, whose meaning is known only to the supplier. Participants are allocated randomly to these numbers.
# For baseline (Day 0) the following tests are performed: Physical examination, vital signs (blood pressure, heart rate), demographics, clinical laboratory, FFQ, serum: 25-OH D3, 24,25(OH)2D, 1,25(OH)2D3, Vitamin D3, calcium, albumin, creatinine, fasting glucose, PTH; urine: calcium, creatinine; executive function tests (see below). Baseline evaluation is followed by the randomization of the subjects. From Day 2 on, they start to take the study compounds. […]
# [2] = system: healthy adults under 65; assay: Example 3 placebo-controlled trial: executive function tests in the general adult population; assay type: in vivo, human; conditions: healthy adults under 65, 6 months
# Protocol: The design is a parallel group, randomized, placebo-controlled, double-blind study similar to that of Example 2, above, except that the participants are healthy adults under 65. The duration of supplementation is 6 months (180 days). Group size is chosen so that a statistically significant difference, if present, may be observed between placebo and test groups. […] Double-blind randomization is carried out by means of a label code associated with a specific participant ID number, whose meaning is known only to the supplier. Participants are allocated randomly to these numbers. For baseline (Day 0) the following tests are performed: […] Baseline evaluation is followed by the randomization of the subjects. From Day 2 on, they start to take the study compounds. At visits on Day 90 and Day 180 the following tests are performed: […] Executive functioning test batteries include the following standard tests of executive functioning: Trail Making Tests A and B (to determine the ratio of TMT-B/TMT-A), Stroop Colour-Word Test, including determining the Stroop ratio, calculated by Stroop card 3/((Stroop card 1+Stroop card 2)/2) and animal fluency test. These tests are always performed at the same time of the day.
# [3] = system: frail elderly with a low Vitamin D status; assay: Example 2 placebo-controlled trial: executive function tests in frail elderly; assay type: in vivo, human; conditions: 6 months, in comparison to Vitamin D3 and placebo
# Text: The design is a parallel group, randomized, placebo-controlled, double-blind study with three different application groups. Each group has an appropriate number of participants (e.g., 20 participants). Eligibility is defined as being 65 years or older and being frail or pre-frail. Frailty is defined as having unintentional weight loss, weakness, self-reported exhaustion, slow walking speed, and/or low physical activity (see Fried L P, et al. Frailty in older adults: evidence for a phenotype. J Gerontol A Biol Sci Med. Sci. March 2001; 56(3):[…]-156.) A participant is classified as pre-frail when one or two of the aforementioned criteria are met, while frail is classified when three or more criteria are present. […] The duration of supplementation is 6 months (180 days). […] Double-blind randomization is carried out by means of a label code associated with a specific participant ID number, whose meaning is known only to the supplier. Participants are allocated randomly to these numbers. For baseline (Day 0) the following tests are performed: […] […] Executive functioning test batteries include the following standard tests of executive functioning: Trail Making Tests A and B (to determine the ratio of TMT-B/TMT-A), Stroop Colour-Word Test, including determining the Stroop ratio, calculated by Stroop card 3/((Stroop card 1+Stroop card 2)/2) and animal fluency test. […]
# [4] = Example 2 placebo-controlled trial: serum/plasma 25-OH D3 level in frail elderly; parameters: species or system human; conditions: in vivo
# Text: The design is a parallel group, randomized, placebo-controlled, double-blind study with three different application groups. Each group has an appropriate number of participants (e.g., 20 participants). Eligibility is defined as being 65 years or older and being frail or pre-frail. Frailty is defined as having unintentional weight loss, weakness, self-reported exhaustion, slow walking speed, and/or low physical activity (see Fried L P, et al. Frailty in older adults: evidence for a phenotype. J Gerontol A Biol Sci Med. Sci. […] A participant is classified as pre-frail when one or two of the aforementioned criteria are met, while frail is classified when three or more criteria are present. […] The duration of supplementation is 6 months (180 days). […] Double-blind randomization is carried out by means of a label code associated with a specific participant ID number, whose meaning is known only to the supplier. Participants are allocated randomly to these numbers. For baseline (Day 0) the following tests are performed: […] Baseline evaluation is followed by the randomization of the subjects. From Day 2 on, they start to take the study compounds. […] For the combination administration, the same ranges of both actives are administered. At visits on Day 90 and Day 180 the following tests are performed: […]
smiles,measurement,setting,value
"C=C1CC[C@H](O)C/C1=C/C=C1\CCC[C@]2(C)[C@@H]([C@H](C)CCCC(C)(C)O)CC[C@@H]12 [25(OH)D, 25-hydroxyvitamin D3]",25-OH D serum level,[1],significantly increases
same,Executive function in comparison to placebo,[2],Positive results
same,Improvement of executive functioning,[3],significantly higher effect
same,25-OH D serum level,[4],significantly increases
